Experimental data from ChEMBL document CHEMBL1201862, “PubChem BioAssay data set” (2004).
Activity calls are given as the source filed them.

Legend:
[1] = blockers of HIV-1 ZM109 envelope-driven cell-cell fusion – HeLa effector, CEM target cells, luciferase, cherry-pick, dose response (AID 652058); format: functional, cell-based;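 note: luciferase signal from HIV-1 Env mediated cell-cell fusion of effector and target cells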
[2] = HIV-1 AD8 envelope cell-cell fusion blockers – cherry-pick, dose response (AID 652062); format: functional, cell-based;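 note: luciferase signal from cell-cell fusion driven by HIV-1 clade B AD8 Env; potency is for inhibitors of fusion seen as a drop in luminescence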
[3] = blockers of HIV-1 envelope-mediated cell-cell fusion – cherry-pick, dose response (AID 652057); format: functional, cell-based
[4] = target: T1, Estrogen receptor (Homo sapiens, UniProt P03372);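 note: potency for inhibiting coactivator peptide recruitment to the receptor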
T1 sequence (P03372 whole entry): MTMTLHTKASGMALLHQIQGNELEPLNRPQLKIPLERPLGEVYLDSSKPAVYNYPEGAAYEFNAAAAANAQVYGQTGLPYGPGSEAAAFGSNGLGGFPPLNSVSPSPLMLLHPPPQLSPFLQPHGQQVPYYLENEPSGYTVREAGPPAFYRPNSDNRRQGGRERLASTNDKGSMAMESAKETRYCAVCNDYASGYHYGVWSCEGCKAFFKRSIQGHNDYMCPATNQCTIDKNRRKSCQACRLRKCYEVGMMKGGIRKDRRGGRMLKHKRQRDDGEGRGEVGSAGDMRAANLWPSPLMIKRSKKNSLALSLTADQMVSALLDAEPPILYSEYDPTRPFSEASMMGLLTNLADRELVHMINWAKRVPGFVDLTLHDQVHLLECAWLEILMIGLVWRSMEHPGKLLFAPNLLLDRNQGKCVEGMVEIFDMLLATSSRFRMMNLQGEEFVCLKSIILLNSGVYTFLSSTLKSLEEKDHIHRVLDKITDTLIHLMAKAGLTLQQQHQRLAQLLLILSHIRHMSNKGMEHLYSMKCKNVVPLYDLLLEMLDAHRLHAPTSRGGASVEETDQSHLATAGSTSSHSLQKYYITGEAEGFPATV

[5] = target: T2, Leucine aminopeptidase (Plasmodium falciparum 3D7, UniProt Q8IL11); assay: P. falciparum M17LAP inhibitors, primary screen, biochemical, fluorogenic H-Leu-NHMec substrate, 1536-well (AID 1619); format: functional
T2 sequence (Q8IL11 whole entry): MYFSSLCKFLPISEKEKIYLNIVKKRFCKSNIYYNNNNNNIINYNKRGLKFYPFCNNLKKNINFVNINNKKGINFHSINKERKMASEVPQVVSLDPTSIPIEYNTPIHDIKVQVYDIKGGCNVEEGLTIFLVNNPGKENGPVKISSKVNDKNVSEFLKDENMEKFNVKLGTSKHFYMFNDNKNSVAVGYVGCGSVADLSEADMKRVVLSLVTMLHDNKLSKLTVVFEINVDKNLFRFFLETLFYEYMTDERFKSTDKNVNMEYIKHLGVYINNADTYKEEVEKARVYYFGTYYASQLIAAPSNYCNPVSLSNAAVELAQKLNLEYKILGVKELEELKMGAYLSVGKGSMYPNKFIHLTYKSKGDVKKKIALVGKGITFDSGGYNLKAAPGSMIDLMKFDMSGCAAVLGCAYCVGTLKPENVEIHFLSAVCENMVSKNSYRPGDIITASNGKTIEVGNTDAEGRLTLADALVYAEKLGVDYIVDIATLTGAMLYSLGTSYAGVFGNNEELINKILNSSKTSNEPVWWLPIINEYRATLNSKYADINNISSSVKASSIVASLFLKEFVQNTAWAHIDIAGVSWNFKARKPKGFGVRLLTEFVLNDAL

[6] = target: T3, Aspartyl aminopeptidase (Plasmodium falciparum 3D7, UniProt Q8I2J3); assay: Counterscreen for inhibitors of M1 and M17 aminopeptidases: QFRET-based biochemical high throughput dose response assay for inhibitors of the Plasmodium falciparum M18 Aspartyl Aminopeptidase (PFM18AAP). [Related PubChem assays: 1619 (Screening assay (M17LAP inhibitors).), 1445 (Screening assay (M1AAP inhibitors).)]
T3 sequence (Q8I2J3 whole entry): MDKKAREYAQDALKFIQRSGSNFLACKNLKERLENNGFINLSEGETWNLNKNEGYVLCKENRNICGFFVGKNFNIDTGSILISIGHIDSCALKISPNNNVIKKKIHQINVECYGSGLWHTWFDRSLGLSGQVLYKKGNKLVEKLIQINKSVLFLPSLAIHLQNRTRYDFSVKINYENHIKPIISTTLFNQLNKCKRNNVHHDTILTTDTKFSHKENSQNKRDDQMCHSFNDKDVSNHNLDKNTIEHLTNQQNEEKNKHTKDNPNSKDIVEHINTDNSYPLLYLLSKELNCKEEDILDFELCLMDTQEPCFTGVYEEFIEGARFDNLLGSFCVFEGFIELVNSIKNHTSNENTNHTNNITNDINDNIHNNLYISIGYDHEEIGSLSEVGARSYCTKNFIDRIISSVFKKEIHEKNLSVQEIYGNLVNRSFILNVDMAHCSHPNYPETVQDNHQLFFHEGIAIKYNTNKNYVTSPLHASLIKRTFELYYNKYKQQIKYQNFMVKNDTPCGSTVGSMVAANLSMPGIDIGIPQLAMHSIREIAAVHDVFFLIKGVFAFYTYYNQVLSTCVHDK

[7] = target: Procathepsin L (Homo sapiens, UniProt P07711); assay: CTSL1 protease inhibition – biochemical, QFRET, 1536-well, counter-screen for M1/M17 aminopeptidase inhibitor project, dose response (AID 2214)
Chain of Procathepsin L (P07711 whole entry): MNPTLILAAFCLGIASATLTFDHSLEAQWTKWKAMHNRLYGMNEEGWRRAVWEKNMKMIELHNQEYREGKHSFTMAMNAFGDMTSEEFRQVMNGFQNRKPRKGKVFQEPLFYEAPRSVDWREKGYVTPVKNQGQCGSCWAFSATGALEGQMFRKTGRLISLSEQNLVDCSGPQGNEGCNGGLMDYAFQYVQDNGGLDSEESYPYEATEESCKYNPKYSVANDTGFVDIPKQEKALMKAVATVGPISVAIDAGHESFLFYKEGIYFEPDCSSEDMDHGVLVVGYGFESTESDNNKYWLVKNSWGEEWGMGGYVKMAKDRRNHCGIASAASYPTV

[8] = M. tuberculosis H37Rv growth inhibitors, H37Rv strain (AID 1626); format: functional
[9] = target: Eukaryotic translation initiation factor 4E (Mus musculus, UniProt P63073); assay: blockers of eIF4G binding by eIF4E – biochemical, TR-FRET, dose response (AID 855); format: functional;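 note: potency for disrupting eIF4E binding to eIF4GI seen as loss of FRET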
Chain of Eukaryotic translation initiation factor 4E (P63073 whole entry): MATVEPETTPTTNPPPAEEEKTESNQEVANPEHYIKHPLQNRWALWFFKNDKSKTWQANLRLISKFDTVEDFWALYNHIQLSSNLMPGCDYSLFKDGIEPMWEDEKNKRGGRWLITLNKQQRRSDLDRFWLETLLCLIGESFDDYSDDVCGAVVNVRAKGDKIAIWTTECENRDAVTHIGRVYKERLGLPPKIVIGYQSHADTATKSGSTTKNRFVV

[10] = target: Large T antigen (Simian virus 40, UniProt P03070); format: functional, Betapolyomavirus macacae;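 note: Confirmatory-stage PubChem screen for compounds that inhibit SV40 T antigen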
Chain of Large T antigen (P03070 whole entry): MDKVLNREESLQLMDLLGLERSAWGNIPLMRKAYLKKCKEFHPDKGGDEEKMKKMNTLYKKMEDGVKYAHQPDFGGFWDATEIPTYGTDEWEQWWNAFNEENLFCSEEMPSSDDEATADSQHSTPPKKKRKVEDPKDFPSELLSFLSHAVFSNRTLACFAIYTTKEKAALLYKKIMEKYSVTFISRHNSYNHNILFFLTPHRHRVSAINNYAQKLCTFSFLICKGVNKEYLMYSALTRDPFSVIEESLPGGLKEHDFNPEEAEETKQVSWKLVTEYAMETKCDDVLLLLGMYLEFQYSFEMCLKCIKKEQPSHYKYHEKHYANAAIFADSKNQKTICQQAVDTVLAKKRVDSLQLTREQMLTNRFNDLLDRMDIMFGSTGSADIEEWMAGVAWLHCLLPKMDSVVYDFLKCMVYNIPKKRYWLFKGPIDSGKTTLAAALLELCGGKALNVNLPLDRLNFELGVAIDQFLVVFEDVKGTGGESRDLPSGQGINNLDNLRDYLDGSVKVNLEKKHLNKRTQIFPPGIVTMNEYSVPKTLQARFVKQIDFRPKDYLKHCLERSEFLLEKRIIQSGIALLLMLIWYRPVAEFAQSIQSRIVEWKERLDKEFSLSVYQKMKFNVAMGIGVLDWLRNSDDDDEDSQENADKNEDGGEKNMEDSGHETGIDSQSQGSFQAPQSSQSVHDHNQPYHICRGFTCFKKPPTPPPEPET

[11] = viability loss of HPDE-C7K cells – cell-based, fluorescence, HTS, primary screen (AID 431); format: functional; conditions: Homo sapiens
[12] = HPDE-C7 pancreatic duct cell viability loss – fluorescence, HTS (AID 430); format: functional, cell-based; conditions: Homo sapiens
[13] = Luminescence Cell-Based Dose Response HTS to Identify Inhibitors of 5'UTR Stem-Loop Driven Prion Protein mRNA Translation in H4 Neuroglioblastoma Cells. [Related pubchem assays: 1827 (Project Summary), 1813 (Primary HTS)]; format: functional
[14] = target: Cytochrome P450 3A4 (Homo sapiens, UniProt P08684);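 note: CYP3A4 tested as one member of a cytochrome P450 panel screen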
Chain of Cytochrome P450 3A4 (P08684 whole entry): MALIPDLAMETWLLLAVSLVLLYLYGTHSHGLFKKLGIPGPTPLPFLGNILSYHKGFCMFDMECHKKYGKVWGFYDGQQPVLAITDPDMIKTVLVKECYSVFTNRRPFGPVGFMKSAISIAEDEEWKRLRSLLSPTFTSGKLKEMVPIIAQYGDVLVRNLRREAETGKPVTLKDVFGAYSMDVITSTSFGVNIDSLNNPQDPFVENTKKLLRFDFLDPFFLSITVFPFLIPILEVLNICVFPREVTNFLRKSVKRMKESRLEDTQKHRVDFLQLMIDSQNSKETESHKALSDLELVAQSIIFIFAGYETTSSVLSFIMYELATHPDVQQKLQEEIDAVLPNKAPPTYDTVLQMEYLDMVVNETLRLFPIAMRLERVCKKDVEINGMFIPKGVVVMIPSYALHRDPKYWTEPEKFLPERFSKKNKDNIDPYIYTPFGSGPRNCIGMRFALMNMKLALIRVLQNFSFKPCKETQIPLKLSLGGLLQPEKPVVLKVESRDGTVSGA

[15] = luciferase reporter signal suppression in cells – H4 neuroglioma cells, luminescence, dose response (AID 1990); format: functional, cell-based
[16] = loss of viability in HepG2 cells – cell-based, CellTiter-Glo, cherry-picked, cytotoxicity control for Shn3 inhibitor project, dose response (AID 624134); format: functional
[17] = target: T4, Ubiquitin-conjugating enzyme E2 N (Homo sapiens, UniProt P61088); format: functional;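 note: Dose-response confirmation in a TR-FRET assay detecting UBC13-driven polyubiquitin chain formation, inhibition measured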
T4 sequence (P61088 whole entry): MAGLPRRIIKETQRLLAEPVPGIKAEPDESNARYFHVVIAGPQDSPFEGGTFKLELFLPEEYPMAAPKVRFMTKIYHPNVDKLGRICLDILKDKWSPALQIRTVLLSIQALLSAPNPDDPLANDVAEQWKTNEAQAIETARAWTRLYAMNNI

[18] = viability of PTEN-deleted HCT116 cells – cell-based, HCT116 PTEN knockout, dose response (AID 1047); format: functional;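 note: HCT116 colon tumor cells with PTEN knocked out; cells exposed to compound for 60 hours before readout; potency for loss of cell viability measured by luminescence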
[19] = alpha-synuclein stem-loop luciferase translation blockers – H4 neuroglioma cells, luminescence, confirmation (AID 1988); format: functional, cell-based
[20] = target: Cytochrome P450 2C19 (Homo sapiens, UniProt P33261); assay: Cytochrome panel assay with activity outcomes. Panel member name: p450-cyp2c19 Compounds with AC50 equal or less than 10 uM are considered active; format: functional; conditions: read-out: AC50
Chain of Cytochrome P450 2C19 (P33261 whole entry): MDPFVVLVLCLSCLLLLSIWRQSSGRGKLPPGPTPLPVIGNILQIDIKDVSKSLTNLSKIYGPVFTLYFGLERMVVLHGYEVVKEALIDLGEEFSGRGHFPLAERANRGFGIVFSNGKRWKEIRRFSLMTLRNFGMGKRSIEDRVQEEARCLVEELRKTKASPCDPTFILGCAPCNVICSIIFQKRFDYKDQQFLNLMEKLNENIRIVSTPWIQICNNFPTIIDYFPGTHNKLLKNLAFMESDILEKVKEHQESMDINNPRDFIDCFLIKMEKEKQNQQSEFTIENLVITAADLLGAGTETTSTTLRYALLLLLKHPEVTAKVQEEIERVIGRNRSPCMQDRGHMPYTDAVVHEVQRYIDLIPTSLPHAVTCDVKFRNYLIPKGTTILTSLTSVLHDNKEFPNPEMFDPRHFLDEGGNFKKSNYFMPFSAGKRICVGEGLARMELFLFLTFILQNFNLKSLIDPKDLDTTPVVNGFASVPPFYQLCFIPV

[21] = target: Cytochrome P450 2C9 (Homo sapiens, UniProt P11712)
Chain of Cytochrome P450 2C9 (P11712 whole entry): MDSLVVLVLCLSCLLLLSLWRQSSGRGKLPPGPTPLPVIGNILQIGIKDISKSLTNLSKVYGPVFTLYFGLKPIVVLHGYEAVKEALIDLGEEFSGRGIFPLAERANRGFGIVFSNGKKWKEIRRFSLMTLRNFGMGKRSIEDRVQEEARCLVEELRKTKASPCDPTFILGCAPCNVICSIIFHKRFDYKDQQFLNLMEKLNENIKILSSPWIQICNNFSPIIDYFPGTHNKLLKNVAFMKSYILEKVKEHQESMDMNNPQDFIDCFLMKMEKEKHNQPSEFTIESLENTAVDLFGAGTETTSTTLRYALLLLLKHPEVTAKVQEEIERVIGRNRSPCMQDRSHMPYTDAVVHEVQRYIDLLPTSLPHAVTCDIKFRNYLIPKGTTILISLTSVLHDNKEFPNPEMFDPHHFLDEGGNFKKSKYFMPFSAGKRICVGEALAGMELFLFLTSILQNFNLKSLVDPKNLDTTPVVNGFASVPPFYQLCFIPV

[22] = reduction of Shn3 3'UTR-driven luciferase in osteoblasts – cell-based, Clone20 osteoblasts, firefly luciferase, cherry-picked, dose response (AID 624132); format: functional;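 note: firefly luciferase luminescence from reporter carrying the Shn3 3'UTR in osteoblasts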
[23] = target: Cytochrome P450 2D6 (Homo sapiens, UniProt P10635);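 note: CYP2D6 member of a cytochrome P450 panel assay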
Chain of Cytochrome P450 2D6 (P10635 whole entry): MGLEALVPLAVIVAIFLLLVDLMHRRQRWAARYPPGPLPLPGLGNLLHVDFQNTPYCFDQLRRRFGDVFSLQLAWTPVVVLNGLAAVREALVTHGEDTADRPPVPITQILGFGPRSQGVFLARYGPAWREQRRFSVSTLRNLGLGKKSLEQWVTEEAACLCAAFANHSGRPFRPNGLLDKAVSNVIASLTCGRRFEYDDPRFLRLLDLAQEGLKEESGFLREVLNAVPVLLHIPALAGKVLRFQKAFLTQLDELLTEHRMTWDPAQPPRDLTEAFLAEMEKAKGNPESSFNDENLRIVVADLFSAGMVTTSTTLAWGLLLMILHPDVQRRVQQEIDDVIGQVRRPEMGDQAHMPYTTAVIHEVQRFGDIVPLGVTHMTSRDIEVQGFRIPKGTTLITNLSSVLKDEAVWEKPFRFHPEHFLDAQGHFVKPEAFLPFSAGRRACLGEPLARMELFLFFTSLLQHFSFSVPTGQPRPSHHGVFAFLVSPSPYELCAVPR

[24] = viability of HCT116 lacking mutant beta-catenin – cell-based, human colon tumor, dose response (AID 1045); format: functional;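 note: HCT116 colon tumor cells with beta catenin knocked out; cells exposed to compound for 60 hours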
[25] = non-specific 3'UTR reporter inhibition in Clone20-Shn3RL – cell-based, Renilla luciferase, cherry-picked, counter-screen for Shn3 inhibitor project, dose response (AID 624133); format: functional

In the case of `O=S(=O)(NCCc1csc(-c2cccnc2)n1)c1ccc(Cl)s1`, the AC50 [1] is reported as 7.17 µM (active), the AC50 [2] is reported as 12 µM (active) and the AC50 [3] is reported as 42 µM (active). For the same molecule, the IC50 [4] was 19.2 µM (active).

In the case of `Cc1ccccc1Nc1nnc(SCC(=O)NC(=O)NCc2ccco2)s1`, the IC50 [4] is reported as 17.3 µM (active) and the IC50 [5] is reported as 25.1 µM (active).

In the case of `CC1CCc2sc(NC(=O)C3CC(Cl)=CCC3C(=O)O)c(C#N)c2C1` (stereo not given), the IC50 [6] is reported as > 73.5 µM (not active), the IC50 [7] is reported as > 59.6 µM (not active) and the IC50 [5] is reported as < 1 µM (active).

In the case of `CCOC(=O)c1cnn(C(=O)c2ccccc2)c1N`, the IC50 [8] is reported as > 100 µM (active) and the IC50 [9] is reported as > 64 µM (inactive).

In the case of `COc1ccc(/N=C/c2c[nH]nc2O)cc1`, the IC50 [10] is reported as 17.9 µM (active) and the IC50 [8] is reported as > 100 µM (active).

In the case of `CCc1ccc(C(=O)CSC2=C(C#N)C(c3ccco3)C(C(C)=O)=C(C)N2)cc1` (stereo not given), the EC50 [11] is reported as 15.7 µM (active) and the EC50 [12] is reported as 14.4 µM (active).

For `COc1ccc(CCN2CCC(Nc3nc4ccccc4n3Cc3ccc(F)cc3)CC2)cc1` [ASTEMIZOLE], the EC50 [13] was 9.34 µM (active), the AC50 [14] was “inactive” and the EC50 [15] was > 60 µM (not active). For the same molecule, the AC50 [16] was 12.6 µM (active), the EC50 [11] was 13.6 µM (active) and the IC50 [17] was > 20 µM (inactive). The EC50 [18] was 5.87 µM (active), the EC50 [19] was 7.94 µM (active) and the AC50 [20] was 7.94 µM (inconclusive). The AC50 [21] was “inactive”, the AC50 [22] was 3.03 µM (active) and the EC50 [12] was 12.4 µM (active). For the same molecule, the AC50 [23] was 7.94 µM (active), the EC50 [24] was 3.78 µM (active) and the AC50 [25] was 19.7 µM (active).
